Consider four compounds from ChEMBL document CHEMBL1201862, “PubChem BioAssay data set” (2004).

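Interpolation was linear, between the two tested concentrations surrounding the appropriate level; five concentrations were tested over 48 hours in 96-well plates. GI50 is the concentration that inhibits growth by half.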 Active and inactive are the calls of the source. No stated cut-off is given here; in the data, active = GI50 up to about 1.1 µM and inactive = higher.

Test systems include A549; CCRF-CEM; HCT-116; HL-60; IGROV-1; M14; MCF7; MDA-MB-231; MDA-N; MOLT-4; OVCAR-3; OVCAR-8; PC-3; SF-539; SNB-19; SR; SW-620; TK-10; UACC-257; UO-31.
What all share (assay): NCI-60 cell line screen, 48 h

On to `O=C1C(NCCO)=C(N2CC2)C(=O)C(NCCO)=C1N1CC1`, for which the GI50 was 44.5 µM (inactive) in the assay on A549; 17.9 µM (inactive) in the assay on CCRF-CEM; 29.6 µM (inactive) in the assay on HCT-116; 13.2 µM (inactive) in the assay with HL-60; > 97.5 µM (inactive) in the assay on IGROV-1; 47.3 µM (inactive) in the assay on M14. The GI50 was > 100 µM (inactive) in the assay with MCF7; > 90.4 µM (inactive) in the assay with MDA-MB-231; > 60.4 µM (inactive) in the assay on MDA-N; 12.2 µM (inactive) in the assay with MOLT-4; 33.7 µM (inactive) in the assay with OVCAR-3; 37.1 µM (inactive) with OVCAR-8. Moreover, the GI50 was > 100 µM (inactive) with PC-3; 39.4 µM (inactive) with SF-539; 60.7 µM (inactive) with SNB-19; 16.8 µM (inactive) in the assay with SR; 46.8 µM (inactive) with SW-620; > 100 µM (inactive) with TK-10. The GI50 in the assay on UACC-257 is > 74.3 µM (inactive); in the assay with UO-31, 51.9 µM (inactive).

On to `COC(=O)C1OC(O[C@H]2CC[C@]3(C)[C@H]4CC=C5[C@@H]6CC(C)(C)CC[C@]6(C(=O)OC6OCC(O)C(O)C6OC6OC(C)C(OC7OCC(OC8OCC(O)C(O)C8O)C(O)C7O)C(O)C6O)[C@H](O)C[C@@]5(C)[C@]4(C)CC[C@H]3C2(C)C)C(O)C(O)C1O` (some centres undefined), for which the GI50 is 2.93 µM (inactive) in the assay on A549; 17.3 µM (inactive) in the assay with CCRF-CEM; 2.19 µM (inactive) with HCT-116; 3.21 µM (inactive) in the assay with HL-60; 4.57 µM (inactive) in the assay with IGROV-1; 1.85 µM (inactive) in the assay with M14. Besides, the GI50 in the assay on MCF7 is 0.69 µM (active); with MDA-MB-231, 2.71 µM (inactive); with MDA-N, 1.78 µM (inactive); in the assay on MOLT-4, 15.7 µM (inactive); with OVCAR-3 it was 6.82 µM (inactive); in the assay with OVCAR-8 it was 5.27 µM (inactive). Further, the GI50 is 4.19 µM (inactive) in the assay on PC-3; 11.4 µM (inactive) in the assay with SF-539; 3.08 µM (inactive) with SNB-19; 3.05 µM (inactive) in the assay with SR; 5.14 µM (inactive) in the assay with SW-620; 9.51 µM (inactive) with TK-10. Also, the GI50 in the assay on UACC-257 was 3.09 µM (inactive); with UO-31 it was 1.75 µM (inactive).

On to `CCOC(=O)c1ccc(/N=N/N(C)C(=O)C(C)N)cc1` (centres undefined), for which the GI50 in the assay on CCRF-CEM is > 100 µM (inactive); in the assay with HCT-116 it was > 100 µM (inactive); in the assay with HL-60, > 100 µM (inactive); with IGROV-1 it was 72.4 µM (inactive); in the assay with M14 it was > 100 µM (inactive); in the assay on MCF7, > 100 µM (inactive). The GI50 with MDA-MB-231 is > 100 µM (inactive); in the assay with MDA-N, 78.3 µM (inactive); with MOLT-4, 43.7 µM (inactive); with OVCAR-3, > 100 µM (inactive); in the assay on OVCAR-8, > 100 µM (inactive); with PC-3, > 100 µM (inactive). Further, the GI50 in the assay on SF-539 was > 100 µM (inactive); in the assay on SNB-19, > 100 µM (inactive); in the assay on SR it was 36.1 µM (inactive); with SW-620, > 100 µM (inactive); in the assay with TK-10, > 100 µM (inactive); in the assay on UACC-257, > 100 µM (inactive). The GI50 in the assay on UO-31 is 88.7 µM (inactive).

Consider `CCCCCCCCCCCCCC/C(C(=O)O)=C(\C)C(=O)O`, for which the GI50 in the assay with A549 is > 100 µM (inactive); with CCRF-CEM, > 100 µM (inactive); with HCT-116, > 100 µM (inactive); with HL-60, 58.3 µM (inactive); in the assay on IGROV-1, > 100 µM (inactive); with M14, > 100 µM (inactive). Further, the GI50 in the assay on MCF7, with MDA-MB-231, with MDA-N, in the assay on MOLT-4, in the assay on OVCAR-3 and with OVCAR-8 was > 100 µM (inactive) in each case. Also, the GI50 is 38.2 µM (inactive) in the assay on PC-3; > 100 µM (inactive) in the assay on SF-539; > 100 µM (inactive) with SNB-19; 41.5 µM (inactive) in the assay with SR; > 100 µM (inactive) with SW-620; > 100 µM (inactive) with TK-10. The GI50 in the assay on UACC-257 and with UO-31 was > 100 µM (inactive) each time.
